Key:
[1] = tested on: nymphal Ixodes scapularis; assay: Fipronil bioassay: treated laboratory mice challenged with nymphal ticks; type: in vivo; conditions: for % of nymphs fed to repletion: 20 μl single topical application
Protocol: Fipronil Bioassay: To better determine the most efficacious concentration of fipronil active ingredient for use in the bait box method of tick control, a trial was conducted using treated and untreated laboratory mice challenged with nymphal Ixodes scapularis. Individual groups of 5 mice were treated with 20 microliters (one drop) of 1%, 0.75%, 0.5% and 0.43% of fipronil topical oil formulation micropipetted between the scapulae. Five mice were used as untreated controls. Individual mice were challenged with 10 nymphs each on days 14, 28 and 42. During tick challenge mice were held over water in a triple barrier/cage system. Ticks that fed to repletion were collected from the water and used as a measurement for acaricidal activity.
4) Fipronil bioassay—A total of 25 mice and 750 nymphal I. scapularis were used in this laboratory trial. The volume of 20 microliters (one average-sized drop) was considered the smallest amount of liquid acaricide that a mouse would apply to itself on a single visit to a bait box.

Ixodes scapularis = assay: Field trial Mason's Island: tick burdens on white-footed mice, fipronil-treated bait boxes; type: in vivo; conditions: for mean number of larvae/mouse: treated area
Protocol: (§1) A field trial was conducted from April to September, 1999 on Mason's Island, Mystic, Conn. […] Four sites situated in undeveloped natural areas were used as untreated controls.
(§2) Modified Protecta Jr. (Bell Laboratories, Madison, Wis.) mouse bait boxes (FIG. 2) were used in this study. The modifications were as follows: a cotton yarn wick was stapled to the underside of the lid just in front of the feeding area entry; two adsorbent nylon strips were affixed to the outer edges of the food block trays. Two Detex monitoring blocks (Bell Laboratories, Madison, Wis.) were placed in each box, 2–3 ml of fipronil topical formulation was applied to the wick and adsorbent strips with a squirt bottle, and the lid was closed and locked with a set screw prior to placement on properties. A 0.43% w/w formulation of fipronil was used in May and June and this was replaced by a 1% w/w formulation from July through September.
(§3) White-footed mice were live-trapped using 3″×3″×10″ Sherman mouse traps (Sherman Trap Co., Tallahassee, Fla.). Pre-treatment trapping was conducted in April and May and post-treatment trapping from June through September to determine: 1) distribution of mice on individual properties, 2) tick burdens on animals, and 3) spirochete infection rates in mice between treated and untreated plots. Each mouse was anesthetized, ectoparasites were removed, ear tissue was collected for spirochete culture, mice were then bled, weighed, measured, ear-tagged and released at the point of capture. In July and August cloth drags were used to collect host-seeking larval ticks for comparison with results of host-associated tick data.
(§4) Based upon pre-treatment mouse distribution and abundance data, a total of 125 bait boxes were set out on 13 residences. Boxes were spaced approximately 30 feet apart along the interface with maintained landscaping and wood lot or scrub brush. The number of boxes/property ranged from 4 to 20, depending on property size and presence of suitable mouse habitat. Initial treatment with fipronil began on May 17 and at approximate 4-week intervals each box was re-baited with 2 food blocks and the wick and strips were replenished with 2–3 ml of fipronil formulation. A record of relative use by white-footed mice was kept for each box during the trial.

I. spinipalpis = assay: Field trial Larimer County, Colorado: ticks on Neotoma mexicana, treated bait boxes; type: in vivo, Ixodes spinipalpis; parameters: I. spinipalpis control level: concentration or dose not given beside the values; conditions: for I. spinipalpis control level: tick burdens treated vs untreated rats, FRONT LINE TOP SPOT
Protocol: A field trial testing fipronil (FRONT LINE TOP SPOT®) on native rodent-associated ticks was conducted in a Rocky Mountains foothills habitat in Larimer County, Colo. Treated and untreated plots consisted of 35 rat dens within 5 hectares each. A mark-release-capture study with Neotoma mexicana began in April, and captured rats were anesthetized and ticks removed, identified and quantified. The principal tick on N. mexicana is I. spinipalpis, a nidicolous, competent vector in enzootic transmission cycles in Colorado, California and Oregon. […] Fipronil was passively applied to rats as they entered and exited modified commercially available bait boxes as described in Example 1. Treated bait boxes were set out in May, left in place, and retreated and rebaited at four-week intervals through August. Collections were made at 1, 4, 8, 12 and 16 weeks post-application. N. mexicana collected in the untreated control area numbered 92 with 150 total captures resulting in 1273 fleas and ticks. In the fipronil area, 110 individual rats were collected with a total of 179 captures resulting in 416 fleas and ticks.

Borrelia burgdorferi = assay: Field trial Mason's Island: spirochete infection of white-footed mice (ear biopsy culture); type: in vivo
Protocol: as §1, §2, §3, §4
3) Impact of fipronil on the natural transmission cycle of B. burgdorferi—Individual captured mice were tested for infection with B. burgdorferi by culture of ear biopsy tissue in BSK H growth media.

[2] = recaptured adult white-footed mice following fipronil treatment, chi-square p = 0.01

N#Cc1nn(-c2c(Cl)cc(C(F)(F)F)cc2Cl)c(N)c1[S+]([O-])C(F)(F)F (stereo not drawn) [Fipronil, 5-amino-3-cyano-1-(2,6-dichloro-4-trifluoromethylphenyl)-4-trifluoromethylsulfinylpyrazole]
% of nymphs fed to repletion ([1]; 0.43% (85 μg/mouse), 14 days): 0%
% of nymphs fed to repletion ([1]; 0.43% (85 μg/mouse), 28 days): 16%
% of nymphs fed to repletion ([1]; 0.43% (85 μg/mouse), 42 days): 30%
% of nymphs fed to repletion ([1]; 0.50% (100 μg/mouse), 14 days): 0%
% of nymphs fed to repletion ([1]; 0.50% (100 μg/mouse), 28 days): 8%
% of nymphs fed to repletion ([1]; 0.50% (100 μg/mouse), 42 days): 24%
% of nymphs fed to repletion ([1]; 1.00% (200 μg/mouse), 14 days): 0%
% of nymphs fed to repletion ([1]; 1.00% (200 μg/mouse), 28 days): 0%
% of nymphs fed to repletion ([1]; 1.00% (200 μg/mouse), 42 days): 2%
optimum concentration of fipronil to kill ticks on mice for 30 days after a single exposure ([1]; 20 microliters (=150 micrograms)): 0.75%
treated properties with host-seeking larvae present (cloth drags) (Ixodes scapularis; July and August, seven of 13 treated properties): 54%
larvae on treated mice (Ixodes scapularis; course of the study, except one engorged larva in August and one larva in September): not present
mean number of larvae/mouse (Ixodes scapularis; August (untreated 9.1)): 0.03
mean number of larvae/mouse (Ixodes scapularis; July (untreated 4.5)): 0
live nymphs on mice after fipronil treatment (Ixodes scapularis; white-footed mice, fipronil-treated area, post-treatment June-September, bait boxes 0.43% then 1% w/w): not found
fleas and ticks collected (I. spinipalpis; fipronil area, 110 rats, 179 captures (untreated: 1273 from 150 captures)): 416
I. spinipalpis control level (I. spinipalpis; week 1 post-application): 25%
I. spinipalpis control level (I. spinipalpis; week 4 post-application): 90%
I. spinipalpis control level (I. spinipalpis; week 8 post-application): 75%
I. spinipalpis control level (I. spinipalpis; week 12 post-application): 97%
I. spinipalpis control level (I. spinipalpis; week 16 post-application): 93%
% of spirochete-infected mice (Borrelia burgdorferi; Peromyscus leucopus, fipronil area, 164 mice, April-September 1999 (untreated 69%)): 38%
% of properties with infected mice (Borrelia burgdorferi; fipronil area, 12/13 properties (untreated 100%)): 92%
young mice that became infected (Borrelia burgdorferi; post-treatment period, 26 young mice (body mass <17 g), fipronil area (untreated 30% of 26)): none
No. of mice + at first capture, remained + (Borrelia burgdorferi; recaptured adult white-footed mice following fipronil treatment): 18
No. of mice − at first capture, became + (Borrelia burgdorferi; [2]): 4
No. of mice − at first capture, remained − (Borrelia burgdorferi; [2]): 14
